Values after ≈ are worked out from the molar mass of the structure shown.
Legend:
[1] = Solubility of the deprotonated form of emetine in water; type: physicochemical
Description: The total volume of titrant utilised was 1.5 mL. The precipitate was centrifuged at 6000 RPM for 20 minutes and separated from the solution. […] The precipitate was dried in a vacuum dryer at 30° C., 100 mbar pressure for 5 h and used in the next synthetic steps.

[2] = system: MERS and SARS coronaviruses; settings: lowest among over 290 drugs tested; cited from earlier work

Compound: CC[C@H]1CN2CCc3cc(OC)c(OC)cc3[C@@H]2C[C@@H]1C[C@H]1NCCc2cc(OC)c(OC)cc21 [emetine]
- solubility [1]: 1790 µg/mL (≈ 3.72 mM)
- EC50 [2]: < 20 nM
